One compound from paper PMC5360062, “Comparative insights into the saccharification potentials of a relatively unexplored but robust Penicillium funiculosum glycoside hydrolase 7 cellobiohydrolase” (Biotechnology for Biofuels, 2017) can be followed below.

This assay deals with T1, PfCBH1 (GH7 cellobiohydrolase 1).
T1 construct: natively purified enzyme from the secretome
The assay can be described thus: inhibition of pNPL hydrolysis by purified enzyme, Michaelis-Menten/Lineweaver-Burk; IC50 […]. It is filed as biochemical, Talaromyces funiculosus (Penicillium funiculosum).

Usually Ki stands for the dissociation constant of the complex between target and ligand, obtained from inhibition or displacement. In turn, `OC[C@H]1O[C@@H](O[C@H]2[C@H](O)[C@@H](O)C(O)O[C@@H]2CO)[C@H](O)[C@@H](O)[C@@H]1O` (stereo partly shown) [G2, cellobiose] displayed an inhibitory constant (Ki) of 760 ± 54 µM.
